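All cell lines were grown in 96-well plates and treated with compound for 48 hours. GI50: concentration for 50% inhibition of growth. TGI: concentration producing complete growth inhibition.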
Legend:
Experiment in all cases: DTP human tumour cell line panel, 48 h
786-0 renal = test system: 786-0 renal
A498 renal = test system: A498 renal
A549 NSCLC = test system: A549 NSCLC
ACHN renal = test system: ACHN renal
BT-549 breast = test system: BT-549 breast
CAKI-1 renal = test system: CAKI-1 renal
CCRF-CEM leukemia = test system: CCRF-CEM leukemia
COLO 205 colon = test system: COLO 205 colon
DU-145 prostate = test system: DU-145 prostate
EKVX NSCLC = test system: EKVX NSCLC
HCC-2998 colon = test system: HCC-2998 colon
HCT-116 colon = test system: HCT-116 colon
HCT-15 colon = test system: HCT-15 colon
HL-60(TB) leukemia = test system: HL-60(TB) leukemia
HOP-62 NSCLC = test system: HOP-62 NSCLC
HOP-92 NSCLC = test system: HOP-92 NSCLC
HS 578T breast = test system: HS 578T breast
HT29 colon = test system: HT29 colon
IGROV1 ovarian = test system: IGROV1 ovarian
K-562 leukemia = test system: K-562 leukemia
KM12 colon = test system: KM12 colon
LOX IMVI melanoma = test system: LOX IMVI melanoma
M14 melanoma = test system: M14 melanoma
MALME-3M melanoma = test system: MALME-3M melanoma
MCF7 breast = test system: MCF7 breast
MDA-MB-231 breast = test system: MDA-MB-231 breast
MDA-MB-435 = test system: MDA-MB-435
MDA-MB-468 breast = test system: MDA-MB-468 breast
MOLT-4 leukemia = test system: MOLT-4 leukemia
NCI-H226 lung = test system: NCI-H226 lung
NCI-H23 lung = test system: NCI-H23 lung
NCI-H460 lung = test system: NCI-H460 lung
NCI-H522 lung = test system: NCI-H522 lung
OVCAR-3 ovarian = test system: OVCAR-3 ovarian
OVCAR-4 ovarian = test system: OVCAR-4 ovarian
OVCAR-5 ovarian = test system: OVCAR-5 ovarian
OVCAR-8 ovarian = test system: OVCAR-8 ovarian
PC-3 prostate = test system: PC-3 prostate
RPMI-8226 leukemia = test system: RPMI-8226 leukemia
RXF 393 renal = test system: RXF 393 renal
SF-268 CNS = test system: SF-268 CNS
SF-295 CNS = test system: SF-295 CNS
SF-539 CNS = test system: SF-539 CNS
SK-MEL-2 melanoma = test system: SK-MEL-2 melanoma
SK-MEL-28 melanoma = test system: SK-MEL-28 melanoma
SK-MEL-5 melanoma = test system: SK-MEL-5 melanoma
SK-OV-3 ovarian = test system: SK-OV-3 ovarian
SN12C renal = test system: SN12C renal
SNB-19 CNS = test system: SNB-19 CNS
SNB-75 CNS = test system: SNB-75 CNS
SR leukemia = test system: SR leukemia
SW-620 colon = test system: SW-620 colon
T-47D breast = test system: T-47D breast
TK-10 renal = test system: TK-10 renal
U251 CNS = test system: U251 CNS
UACC-257 melanoma = test system: UACC-257 melanoma
UACC-62 melanoma = test system: UACC-62 melanoma
UO-31 renal = test system: UO-31 renal

Compound: CC(=O)Nc1ccc(-c2cn(-c3cccc(C(=O)Nc4cc(C(F)(F)F)cc(C(F)(F)F)c4)c3)nn2)cn1
- GI50 (786-0 renal): 3.41 µM
- TGI (786-0 renal): 12 µM
- GI50 (A498 renal): 25.4 µM
- TGI (A498 renal): 42.1 µM
- GI50 (A549 NSCLC): 4.54 µM
- TGI (A549 NSCLC): 16.3 µM
- GI50 (ACHN renal): 11.1 µM
- TGI (ACHN renal): 37.5 µM
- GI50 (BT-549 breast): 3.37 µM
- TGI (BT-549 breast): 8.51 µM
- GI50 (CAKI-1 renal): 17.3 µM
- TGI (CAKI-1 renal): 45.1 µM
- GI50 (CCRF-CEM leukemia): 2.4 µM
- TGI (CCRF-CEM leukemia): 6.76 µM
- GI50 (COLO 205 colon): 7.14 µM
- TGI (COLO 205 colon): 23.7 µM
- GI50 (DU-145 prostate): 10.4 µM
- TGI (DU-145 prostate): 29.5 µM
- GI50 (EKVX NSCLC): 11.2 µM
- TGI (EKVX NSCLC): 36.1 µM
- GI50 (HCC-2998 colon): 14 µM
- TGI (HCC-2998 colon): 34.3 µM
- GI50 (HCT-116 colon): 5.78 µM
- TGI (HCT-116 colon): 27.7 µM
- GI50 (HCT-15 colon): 10.9 µM
- TGI (HCT-15 colon): 33.1 µM
- GI50 (HL-60(TB) leukemia): 1.23 µM
- TGI (HL-60(TB) leukemia): 10.9 µM
- GI50 (HOP-62 NSCLC): 8.56 µM
- TGI (HOP-62 NSCLC): 22.5 µM
- GI50 (HOP-92 NSCLC): 2.7 µM
- TGI (HOP-92 NSCLC): 8.6 µM
- GI50 (HS 578T breast): 6.17 µM
- TGI (HS 578T breast): 48.9 µM
- GI50 (HT29 colon): 3.24 µM
- TGI (HT29 colon): 12.9 µM
- GI50 (IGROV1 ovarian): 16.4 µM
- TGI (IGROV1 ovarian): 35.3 µM
- GI50 (K-562 leukemia): 0.154 µM
- TGI (K-562 leukemia): 10.5 µM
- GI50 (KM12 colon): 0.417 µM
- TGI (KM12 colon): 12.7 µM
- GI50 (LOX IMVI melanoma): 4.53 µM
- TGI (LOX IMVI melanoma): 16.3 µM
- GI50 (M14 melanoma): 4.39 µM
- TGI (M14 melanoma): 19.9 µM
- GI50 (MALME-3M melanoma): 3.26 µM
- TGI (MALME-3M melanoma): 12.6 µM
- GI50 (MCF7 breast): 4.68 µM
- TGI (MCF7 breast): 21.8 µM
- GI50 (MDA-MB-231 breast): 7.51 µM
- TGI (MDA-MB-231 breast): 25.1 µM
- GI50 (MDA-MB-435): 11.7 µM
- TGI (MDA-MB-435): 28.1 µM
- GI50 (MDA-MB-468 breast): 3.46 µM
- TGI (MDA-MB-468 breast): 16.2 µM
- GI50 (MOLT-4 leukemia): 1.94 µM
- TGI (MOLT-4 leukemia): 6.12 µM
- GI50 (NCI-H226 lung): 13.8 µM
- TGI (NCI-H226 lung): 30.1 µM
- GI50 (NCI-H23 lung): 14.2 µM
- TGI (NCI-H23 lung): 33.5 µM
- GI50 (NCI-H460 lung): 4.2 µM
- TGI (NCI-H460 lung): 15.2 µM
- GI50 (NCI-H522 lung): 12.3 µM
- TGI (NCI-H522 lung): 30.8 µM
- GI50 (OVCAR-3 ovarian): 7.7 µM
- TGI (OVCAR-3 ovarian): 21.2 µM
- GI50 (OVCAR-4 ovarian): 11.9 µM
- TGI (OVCAR-4 ovarian): 31.7 µM
- GI50 (OVCAR-5 ovarian): 18.7 µM
- TGI (OVCAR-5 ovarian): 38.9 µM
- GI50 (OVCAR-8 ovarian): 8.26 µM
- TGI (OVCAR-8 ovarian): 24.4 µM
- GI50 (PC-3 prostate): 3.4 µM
- TGI (PC-3 prostate): 10.8 µM
- GI50 (RPMI-8226 leukemia): 3.46 µM
- TGI (RPMI-8226 leukemia): 15 µM
- GI50 (RXF 393 renal): 11.2 µM
- TGI (RXF 393 renal): 26.4 µM
- GI50 (SF-268 CNS): 21 µM
- TGI (SF-268 CNS): 64.7 µM
- GI50 (SF-295 CNS): 14.2 µM
- TGI (SF-295 CNS): 37.3 µM
- GI50 (SF-539 CNS): 10 µM
- TGI (SF-539 CNS): 24.8 µM
- GI50 (SK-MEL-2 melanoma): 13.4 µM
- TGI (SK-MEL-2 melanoma): 28.1 µM
- GI50 (SK-MEL-28 melanoma): 12.9 µM
- TGI (SK-MEL-28 melanoma): 29.3 µM
- GI50 (SK-MEL-5 melanoma): 16.4 µM
- TGI (SK-MEL-5 melanoma): 33.2 µM
- GI50 (SK-OV-3 ovarian): 13.5 µM
- TGI (SK-OV-3 ovarian): 34.1 µM
- GI50 (SN12C renal): 11 µM
- TGI (SN12C renal): 28.1 µM
- GI50 (SNB-19 CNS): 19.9 µM
- TGI (SNB-19 CNS): 50.2 µM
- GI50 (SNB-75 CNS): 5.84 µM
- TGI (SNB-75 CNS): 28.4 µM
- GI50 (SR leukemia): 1.89 µM
- TGI (SR leukemia): 5.18 µM
- GI50 (SW-620 colon): 7.85 µM
- TGI (SW-620 colon): 24.1 µM
- GI50 (T-47D breast): 19.1 µM
- TGI (T-47D breast): 91.6 µM
- GI50 (TK-10 renal): 26 µM
- TGI (TK-10 renal): 49.3 µM
- GI50 (U251 CNS): 3.85 µM
- TGI (U251 CNS): 13.5 µM
- GI50 (UACC-257 melanoma): 12.9 µM
- TGI (UACC-257 melanoma): 36 µM
- GI50 (UACC-62 melanoma): 13.5 µM
- TGI (UACC-62 melanoma): 29.8 µM
- GI50 (UO-31 renal): 19.5 µM
- TGI (UO-31 renal): 37.2 µM

From PubChem BioAssay (NCI)
